Measurements: patent US20080214508A1, “Methods of Administering Water-Soluble Prodrugs of Propofol” (MGI GP, INC., priority 2004, published 2008)
Several values for one entry are separate records, joined by “and”; a condition that tells them apart may be missing. Identical values can stand only once. Entries after “also recorded” stand apart in the source; their conditions may differ.

Key:
human subjects = conditions: intravenous infusions; cited from earlier work
[1] = Plasma propofol pharmacokinetics in Beagle dogs after intravenous, subcutaneous or rectal prodrug; format: in vivo
Procedure: Upon administration, the test prodrug is converted in the body into propofol, its pharmacologically active metabolite. The pharmacokinetic profile, i.e. the blood plasma concentration of propofol derived from the test prodrug, was assessed in a separate experiment. Three male Beagle dogs (8.7-10.9 kg) received intravenous, subcutaneous, or rectal doses of the prodrug (see Tab. 1, below). Blood samples were taken at pre-dose, 2 (only for intravenous and subcutaneous), 5, 15, 30 minutes, 1, 1.5, 2, 3, 4, 6, and 8 hrs after administration of the test prodrug. Blood samples were centrifuged to obtain plasma and stored frozen until analysis. The outcome of this experiment is depicted in the following Table I: […]

[2] = anesthetic induction doses; cited from earlier work
[3] = rats, intravenous infusion over 10 minutes, 5-40 mg/kg
[4] = Beagle dog 46, rectal, 16.8 mg/kg prodrug, first suppository expelled, second given, nominal dose used
[5] = Beagle dog 47, rectal, 15.7 mg/kg prodrug
[6] = Beagle dog 48, rectal, 18.4 mg/kg prodrug
[7] = Beagle dogs, i.v., 16 mg/kg prodrug, average of 3 dogs
[8] = Beagle dogs, i.v., 16 mg/kg prodrug, individual dogs 46, 47, 48, disodium salt, 16 mg/kg
[9] = Beagle dogs, rectal, 15.7-18.4 mg/kg prodrug, average of 3 dogs
[10] = Beagle dogs, subcut., 16 mg/kg prodrug, average of 3 dogs
[11] = Beagle dogs, subcut., 16 mg/kg prodrug, individual dogs 46, 47, 48, disodium salt, 16 mg/kg

Procedure for Sprague-Dawley rats: FIG. 2 illustrates the sedative/anesthetic effects of various doses of the experimental compound when administered via the intravenous route.
For comparison, an additional two animals received a subcutaneous injection of propofol (80 mg/kg) in its commercially available liquid emulsion formulation. For further comparison, the above-described pharmacological effects of subcutaneous administration of the tested prodrug were compared with those caused by an intravenous infusion: Under halothane anesthesia, young adult rats received femoral vein catheters which were exteriorized and attached to a liquid swivel via a protectant spring. About 20 minutes after catheterization, and after full behavioral recovery from halothane anesthesia, each animal was attached to an electronic infusion pump and was administered vehicle, or 5, 10, 20, 30, or 40 mg/kg of the test prodrug (n=2 per dose) in 1 ml total volume by gradual constant-rate intravenous infusion over 10 minutes. Behavioral rating as described above began immediately following the end of infusion.

Structure (SMILES): CC(C)c1cccc(C(C)C)c1OCOP(=O)([O-])[O-].[Na+].[Na+] [O-phosphonooxymethyl propofol disodium salt]
- duration of effects relative to subcutaneous administration (Sprague-Dawley rats; [3]): shorter duration compared to subcutaneous administration
- onset of sedated behavior relative to subcutaneous injection (Sprague-Dawley rats; [3]): even more rapidly than after subcutaneous-injection
- onset of sedated behavior after dosing (Sprague-Dawley rats; rats, single subcutaneous injection, 50-300 mg/kg): 5 to 10 min
- duration of sedation (Sprague-Dawley rats; rats, subcutaneous, 50 mg/kg): 1 to 1.5 h
- sedative effect compared to vehicle (Sprague-Dawley rats; rats, subcutaneous, 50 mg/kg): mild to moderate sedation
- behavioral effect following sedation (Sprague-Dawley rats; rats, subcutaneous, 100, 200 and 300 mg/kg dose groups): loss of consciousness
- duration of loss of consciousness (Sprague-Dawley rats; rats, subcutaneous, two highest dose groups (200 and 300 mg/kg)): more than two hours
- time after administration until plateau effect is reached (Sprague-Dawley rats; subcutaneous administration): 10 to 15 min
- duration for which plateau effect is maintained (Sprague-Dawley rats; subcutaneous administration, depending on dose): up to about thirty minutes to two hours or longer
- potency of plasma propofol in suppressing EEG activity and causing a hypnotic effect, versus plasma propofol from infusions of propofol itself (human subjects): significantly more potent
- AUCLast of plasma propofol [1, 4]: 471.4 ng·h/mL
- Cmax of plasma propofol [1, 4]: 220 ng/mL
- Tmax of plasma propofol [1, 4]: 60 min
- AUCLast of plasma propofol [1, 5]: 204.5 ng·h/mL
- Cmax of plasma propofol [1, 5]: 170 ng/mL
- Tmax of plasma propofol [1, 5]: 15 min
- AUCLast of plasma propofol [1, 6]: 46.7 ng·h/mL
- Cmax of plasma propofol [1, 6]: 90 ng/mL
- Tmax of plasma propofol [1, 6]: 15 min
- AUCLast of plasma propofol [1, 7]: 1728 ± 256.0 ng·h/mL
- Cmax of plasma propofol [1, 7]: 3840 ± 1190 ng/mL
- Tmax of plasma propofol [1, 7]: 1.8 min
- Tmax of plasma propofol ([1]; Beagle dogs, i.v., 16 mg/kg prodrug, individual dogs 46, 47, 48): 1.8 min
- AUCLast of plasma propofol [1, 8]: 1776 ng·h/mL and 1956 ng·h/mL and 1451 ng·h/mL
- Cmax of plasma propofol [1, 8]: 2570 ng/mL and 4930 ng/mL and 4010 ng/mL
- AUCLast of plasma propofol [1, 9]: 240.9 ± 214.7 ng·h/mL
- Cmax of plasma propofol [1, 9]: 160 ± 60 ng/mL
- Tmax of plasma propofol [1, 9]: 30 ± 25.8 min
- AUCLast of plasma propofol [1, 10]: 1322 ± 557.7 ng·h/mL
- Cmax of plasma propofol [1, 10]: 390 ± 90 ng/mL
- Tmax of plasma propofol [1, 10]: 60 ± 30 min
- AUCLast of plasma propofol [1, 11]: 1781 ng·h/mL and 1484 ng·h/mL and 701.6 ng·h/mL
- Cmax of plasma propofol [1, 11]: 460 ng/mL and 420 ng/mL and 290 ng/mL
- Tmax of plasma propofol [1, 11]: 90 min and 60 min and 30 min

Structure (SMILES): CC(C)c1cccc(C(C)C)c1O [propofol, 2,6-diisopropylphenol]
- sedative effect (Sprague-Dawley rats; rats, subcutaneous, 80 mg/kg, commercially available liquid emulsion formulation): only very mild or no sedative effects; also recorded: none or only very mild sedation
- patients with respiratory consequences, including reduction in tidal volume and apnea [2]: up to 83%
